Some test systems named below: A549 NSCLC; ACHN renal; U251 CNS; HOP-92 NSCLC; NCI/ADR-RES ovarian; SF-539 CNS; TK-10 renal; MDA-MB-231 breast; SK-MEL-5 melanoma; EKVX NSCLC.
Common to all, as to assay: NCI tumour cell line growth inhibition, 48 h

Each structure is given as a SMILES string. Where “and” joins values, the source holds several entries; their conditions need not be identical. Equal entries are not always repeated.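 Following 48 hours of exposure in 96-well plates, responses at five concentrations were used to interpolate endpoints linearly. GI50: concentration for 50% inhibition of growth. TGI is the concentration that stops growth completely.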

On to `O=C1/C(=C/c2ccc3c(c2)OCO3)Sc2scc(-c3ccc(O)c(O)c3)[n+]21`, for which the TGI in the assay with A549 NSCLC is 46.3 µM; with ACHN renal, 3.94 µM; in the assay with U251 CNS, 37.9 µM; with HOP-92 NSCLC it was 7.58 µM; in the assay with NCI/ADR-RES ovarian it was 4.48 µM; in the assay on SF-539 CNS, 7.84 µM. The TGI was 3.71 µM in the assay on TK-10 renal, over 28.8 µM in the assay with MDA-MB-231 breast, over 22.4 µM with SK-MEL-5 melanoma and 8.25 µM with EKVX NSCLC.
As to `O=C1CSc2sc(=S)sc2S1`, the TGI in the assay with A549 NSCLC, in the assay on U251 CNS, in the assay on HOP-92 NSCLC, in the assay with NCI/ADR-RES ovarian, with SF-539 CNS and in the assay with SK-MEL-5 melanoma was over 100 µM in each case. In the assay on EKVX NSCLC, this molecule showed a TGI of over 100 µM.
As to `CCc1cccc(C(C)C)c1NC1=C([n+]2ccc(C)cc2)C(=O)c2ccccc2C1=O`, the TGI was 22.5 µM in the assay on A549 NSCLC; 1.68 µM in the assay on ACHN renal; 12.1 µM in the assay with U251 CNS; 7.06 µM in the assay with HOP-92 NSCLC; 37.8 µM with NCI/ADR-RES ovarian; 4.27 µM in the assay with SF-539 CNS. Also, the TGI in the assay on TK-10 renal was 29.1 µM; in the assay on MDA-MB-231 breast it was over 34.7 µM; in the assay with SK-MEL-5 melanoma, 4.66 µM; in the assay with EKVX NSCLC, 5.16 µM.
Take `NS(=O)(=O)c1ccc(N=Nc2ccc(O)c(O)c2)cc1`: the TGI in the assay with A549 NSCLC was found to be 48.7 µM; in the assay on ACHN renal, 17 µM; in the assay on U251 CNS, 72.9 µM; in the assay with HOP-92 NSCLC, 69.3 µM; in the assay on NCI/ADR-RES ovarian it was 73.2 µM; with SF-539 CNS it was 45.1 µM. Further, the TGI with TK-10 renal was 93 µM; with MDA-MB-231 breast, 38.8 µM; with SK-MEL-5 melanoma it was 19.7 µM; in the assay on EKVX NSCLC, over 100 µM.
As for `O=NN(CCCl)C(=O)Nc1ccc(Cl)c(Cl)c1`, the TGI with A549 NSCLC was over 100 µM; in the assay with U251 CNS, over 100 µM; in the assay on HOP-92 NSCLC, 97.8 µM; in the assay with NCI/ADR-RES ovarian, over 100 µM; in the assay on SF-539 CNS, over 100 µM; in the assay on SK-MEL-5 melanoma, over 100 µM. In the assay with EKVX NSCLC, this molecule gave a TGI of over 100 µM.
As for `OCCSCc1cc(Cl)cc(Cl)c1O`, the TGI with A549 NSCLC, in the assay with ACHN renal, in the assay on U251 CNS, in the assay on HOP-92 NSCLC, in the assay on NCI/ADR-RES ovarian and with TK-10 renal was over 100 µM throughout. Besides, the TGI in the assay with MDA-MB-231 breast, in the assay with SK-MEL-5 melanoma and in the assay with EKVX NSCLC was over 100 µM in each case.
With `Nc1nccc2c1ncn2C1C=C(CO)C(O)C1O` (stereo not given), the GI50 was over 1000 µM in the assay with A549 NSCLC; 1.61 µM in the assay on U251 CNS; over 1000 µM with HOP-92 NSCLC; 711 µM with SF-539 CNS; 29.4 µM in the assay with TK-10 renal. The TGI with A549 NSCLC, with U251 CNS, with HOP-92 NSCLC, in the assay on SF-539 CNS, in the assay with TK-10 renal and in the assay on SK-MEL-5 melanoma was over 1000 µM each time.
With `COc1cc(CCC(=O)O)c2cc3ccccc3cc2c1O`, the TGI came to 52.6 µM in the assay with A549 NSCLC; 32.2 µM with ACHN renal; 29.9 µM in the assay on U251 CNS; 88.3 µM in the assay on HOP-92 NSCLC; 80.7 µM in the assay with NCI/ADR-RES ovarian; 75.1 µM in the assay on TK-10 renal. Also, the results for the TGI in the assay on MDA-MB-231 breast, in the assay on SK-MEL-5 melanoma and in the assay with EKVX NSCLC were 41.4 µM, 28.4 µM and 53.1 µM, respectively.
Take `Cc1cc(O)c2cc3c(O)c(O)ccc3cc2c1`: the TGI is over 26.3 µM in the assay on A549 NSCLC; 5.71 µM in the assay on ACHN renal; 18.1 µM in the assay with U251 CNS; over 22.8 µM with HOP-92 NSCLC; 5.89 µM in the assay on NCI/ADR-RES ovarian; 3.27 µM in the assay with SF-539 CNS. Besides, the TGI in the assay on TK-10 renal was determined as 33.7 µM; in the assay on MDA-MB-231 breast, 3.21 µM; in the assay on SK-MEL-5 melanoma, 1.07 µM; with EKVX NSCLC, 24.7 µM.
As for `Cc1ccc(NC(=O)CC(=O)n2nc(-c3ccccc3)c(N=Nc3ccccc3C(=O)O)c2-c2ccccc2)cc1`, the TGI in the assay on A549 NSCLC, with ACHN renal, with HOP-92 NSCLC, in the assay on SF-539 CNS, in the assay with TK-10 renal and in the assay with SK-MEL-5 melanoma was over 100 µM each time. Further, the TGI with EKVX NSCLC was over 100 µM.
Take `COc1cccc2c1C(=O)c1c(O)c3c(c(O)c1C2=O)C[C@@](O)(C(C)=O)C[C@@H]3OC1CC(N(C)C)C(O)C(C)O1` (stereo not given in full): the GI50 with A549 NSCLC is 0.0816 µM and 0.035 µM; in the assay on ACHN renal it was 0.00902 µM; in the assay with U251 CNS it was 0.0451 µM; in the assay with HOP-92 NSCLC, 0.00454 µM and < 0.0147 µM; in the assay on SF-539 CNS, 0.0173 µM; with TK-10 renal it was 0.122 µM. The GI50 in the assay on SK-MEL-5 melanoma is 0.0368 µM and < 0.0109 µM; in the assay on EKVX NSCLC, 0.126 µM and 0.0588 µM. The TGI in the assay on A549 NSCLC was 0.423 µM and 1.65 µM; in the assay on NCI/ADR-RES ovarian, 1.87 µM; in the assay with TK-10 renal, 1.34 µM; with MDA-MB-231 breast it was 0.005 µM.
For the molecule `O=CN(O)CC(=O)O.[Ni]`, the TGI in the assay with ACHN renal, in the assay on U251 CNS, in the assay on HOP-92 NSCLC, in the assay with NCI/ADR-RES ovarian, in the assay on SF-539 CNS and in the assay with MDA-MB-231 breast was over 100 µM throughout. Moreover, the TGI in the assay with SK-MEL-5 melanoma and in the assay on EKVX NSCLC was over 100 µM throughout.

Source of the values: PubChem BioAssay (NCI).
